One data set addresses T1, Kir3.1/Kir3.2 (Homo sapiens, UniProt P48051+P48549).
T1 construct: expressed in transfected cells
T1 sequence (P48549 1-501): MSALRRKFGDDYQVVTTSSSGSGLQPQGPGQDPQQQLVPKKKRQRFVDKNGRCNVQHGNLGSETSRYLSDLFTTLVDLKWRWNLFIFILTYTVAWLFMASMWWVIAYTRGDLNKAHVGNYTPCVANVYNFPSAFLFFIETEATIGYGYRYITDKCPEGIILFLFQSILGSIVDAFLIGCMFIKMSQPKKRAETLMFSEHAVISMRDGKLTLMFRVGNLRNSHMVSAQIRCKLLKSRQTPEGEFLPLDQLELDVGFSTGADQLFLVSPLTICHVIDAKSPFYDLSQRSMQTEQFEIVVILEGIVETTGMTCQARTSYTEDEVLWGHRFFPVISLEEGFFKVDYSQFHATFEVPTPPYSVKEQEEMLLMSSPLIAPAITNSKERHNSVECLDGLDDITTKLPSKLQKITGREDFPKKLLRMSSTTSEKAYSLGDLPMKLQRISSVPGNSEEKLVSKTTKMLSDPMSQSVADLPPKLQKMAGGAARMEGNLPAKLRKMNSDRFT
T1 sequence (P48051 1-423): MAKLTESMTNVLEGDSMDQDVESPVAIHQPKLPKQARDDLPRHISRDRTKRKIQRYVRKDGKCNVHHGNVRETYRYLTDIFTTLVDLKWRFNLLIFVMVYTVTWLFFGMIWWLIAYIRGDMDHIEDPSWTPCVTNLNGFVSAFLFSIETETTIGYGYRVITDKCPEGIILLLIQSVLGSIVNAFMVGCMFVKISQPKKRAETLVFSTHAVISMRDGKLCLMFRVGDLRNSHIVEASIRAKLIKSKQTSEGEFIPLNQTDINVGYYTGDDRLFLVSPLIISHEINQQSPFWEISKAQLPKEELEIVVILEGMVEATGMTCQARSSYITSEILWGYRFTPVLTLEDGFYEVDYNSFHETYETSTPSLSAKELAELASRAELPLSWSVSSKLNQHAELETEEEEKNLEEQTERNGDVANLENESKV
Kind of data set: Thallium flux selectivity assay Kir3.1/Kir3.2. In kind it is cell-based. The protocol: Quantitative thallium flux assays of Kir6.1/SUR2B activity were performed essentially as described previously for Kir6.2/SUR1 ([Raphemot et al., 2014]; [Kharade et al., 2019]). Stable T-Rex-HEK293-Kir6.1/SUR2B cells or transiently transfected HEK293T cells were plated in polyamine-coated, clear-bottomed, black-walled 384-well plates and were cultured (37°C/5% CO2) overnight in Dulbecco’s modified Eagle’s medium (Gibco, Carlsbad, CA, 11995-065) containing 10% FBS (2 mM Penicillin-Streptomycin). The following day, cells were washed with assay buffer (i.e., Hanks’ balanced salt solution/20 mM HEPES) and loaded for 1 hour with thallium sensor dye Brilliant Thallium (Ion Bioscience, San Marcos, TX) at room temperature. Dye-loaded cells were washed with assay buffer and transferred to a Panoptic Kinetic Imaging Plate Reader (Wavefront Bioscience, Franklin, TN). Control and test compound treatments were for 4 minutes prior to adding 0.5 mM chloride-free thallium stimulus buffer (Ion Bioscience) to initiate thallium flux. […] Selectivity assays against other Kir channels were performed essentially as described previously ([Kharade et al., 2018]; [McClenahan et al., 2022]).

Data set [1] is described as follows: Rat intravenous pharmacokinetics. The note with it: for MRT: iv. Format: in vivo. The protocol: All animal housing and experimental procedures were approved by the Vanderbilt University Animal Care and Use committee and followed the guidelines set forth by the Guide for the Care and Use of Laboratory Animals. VU0542270 was formulated as a solution in ethanol, PEG400, and saline (1:4:5 v/v, respectively) at a concentration of 1 mg/mL and administered as a single 1-mg/kg IV dose (1 mL/kg) to male Sprague Dawley rats (n = 2; between 366–418 g body weights) via injection into a surgically implanted jugular vein catheter. Blood samples were collected serially from a surgically implanted carotid artery catheter in each animal over multiple postadministration time points (0.033, 0.117, 0.25, 0.5, 1, 2, 4, 7, and 24 hours) into chilled K2EDTA anticoagulant-fortified tubes and immediately placed on wet ice. The blood samples were then centrifuged [1700 relative centrifugal force (rcf), 5 minutes, 4°C] to obtain plasma samples, which were stored at −80°C until analysis by liquid chromatography tandem mass spectrometry (LC-MS/MS). The intravenous pharmacokinetic (PK) data were used for the calculation of relevant intravenous pharmacokinetic parameters [plasma clearance (CLp), volume of steady state, elimination half-life (t1/2), and mean residence time]. In vivo pharmacokinetic parameters of VU0542270 were determined from the observed individual animal time-versus-concentration data using noncompartmental analysis via WinNonlin (WNL; v.5.3, Pharsight Corp., Mountain View, CA.).
Plasma samples from the in-life phases of the studies were thawed at ambient temperature (benchtop), and then aliquots (20 µL per sample) were transferred to a 96-shallow-well (V-bottom) plate. Matrix-matched quality-control samples and a standard curve of VU0542270 (1 mg/mL DMSO stock solution) were prepared in blank rat plasma (K2EDTA treated) or blank brain homogenate via serial dilution and transferred (20 µL each) to the plate along with multiple blank plasma and brain homogenate samples. Acetonitrile (120 µL) containing internal standard (50 nM carbamazepine) was added to each well of the plate to precipitate protein. The plate was then centrifuged (4000 rcf, 5 minutes, ambient temperature), and resulting supernatants (60 µL each) were transferred to a new 96-shallow-well (V-bottom) plate containing an equal volume (60 µL per well) of water (Milli-Q purified). The plate was then sealed in preparation for LC-MS/MS analysis (see below).
Prepared samples were injected (10 µL each) onto an AB Sciex triple quad-4500 mass spectrometer system with an Agilent 1290 Infinity Binary Pump and multisampler. Analytes were separated on a reverse phase column Phenomenex Kinetex C18 (50 × 2.1 mm, 5 µm) that was thermostated at 40°C. High-pressure liquid chromatography mobile phase A was 0.5% formic acid in water (pH unadjusted); mobile phase B was 0.5% formic acid in acetonitrile (pH unadjusted). […] The column was re-equilibrated (1 minute) before the next sample injection. The total run time was 2.55 minutes, and the high-pressure liquid chromatography flow rate was 0.5 ml/min. The source temperature was set at 500°C, and mass spectral analyses were performed using a Turbo-Ion spray source in positive ionization mode (5.0-kV spray voltage) and using multiple-reaction monitoring of transitions specific for both analyte (m/z 335.7–236.7 at 35 eV) and internal standard (m/z 237.0–193.9 at 25 eV). Quantitation of VU0542270 was performed via AB Sciex Analyst software using the raw analyte:IS peak area ratios. The typical detection range for VU0542270 was 0.5 ng/mL to ≥5000 ng/mL, utilizing a quadratic equation regression with 1/x^2 weighting.

The term IC50 denotes the concentration that gives 50% inhibition. The term half-life denotes how long it takes for the measured level to halve. For orientation: MRT means the average time that molecules of a dose stay in the body. Regarding `Cc1nc(-c2cccs2)sc1CNC(=O)Nc1cccs1` [VU0542270], at Kir3.1/Kir3.2, the 50% inhibitory concentration (IC50) is more than 30 µM. Moreover, the half-life in data set [1] (male, Sprague Dawley, plasma, 1 mg/kg, rat IV PK) is 38.4 min. The clearance in data set [1] (male, Sprague Dawley, plasma, rat, 1 mg/kg IV, read-out: CLp) came to 17.7 mL/min/kg. The Vd in data set [1] (male, Sprague Dawley, plasma, rat, 1 mg/kg IV, read-out: Vss) was determined as 0.2 L/kg. For the same compound, the mean residence time MRT in data set [1] (male, Sprague Dawley, rat, plasma, 1 mg/kg, 1 mg/kg IV) stood at 11.4 min; in data set [1] (male, Sprague Dawley, rat, plasma, 1 mg/kg, rat IV PK) it was 10.2 min. In data set [1] (rat, 1 mg/kg IV), this compound displayed a t1/2 of 38.4 min.

The values above are taken from publication PMC10877733, “Discovery and Characterization of VU0542270, the First Selective Inhibitor of Vascular Kir6.1/SUR2B KATP Channels” (Molecular Pharmacology, 2024).
